Results reported in patent publication US20230279233A1, “ATROROSINS AS FOOD COLORS” (Chromologics ApS, priority 2020, published 2023).
“And” between values parts separate entries of the source, which are not always exact repeats. Identical values can stand only once. Like-named read-outs stand apart in the source and are kept apart here.

Tests used:
[1] = Temperature stability at 60° C. and 80° C. in McIlvaine buffer pH 5, absorption maxima
Method: Buffer and atrorosin was mixed for 5 minutes before the solutions were subjected heating in an incubator at 60° C. and 80° C. to colorimetric analysis using spectrophotometer. The absorption maxima at 425 nm and 490 nm were determined in a microtiter plate with a 0.45 cm cell length with buffer as blank. In comparison to the data in Table 3, the absorption spectrum of betanin is determined as above. […] In comparison to Table 5, the absorption spectrum of betanin is determined as above.

[2] = background, literature; cited from earlier work
[3] = Pharmacokinetic profile in rats, IV and PO; format: in vivo; conditions: rat, IV 1 mg/kg
[4] = pH stability in McIlvaine buffer pH 2.2-7.2, absorption maxima by spectrophotometer; format: physicochemical
TA 98 = assay: mini-Ames (AMES MPF) genotoxicity; format: cell-based
Method: Resulting powder from example 2 was sent to Cyprotox to asses for genotoxicity in a mini-Ames experiment. 43.2 mg of atrorosin was sent to Cyprotox. Mini-Ames test were conducted under the guidelines of OECD.
In comparison to the atrorosin tested above, similar 46.4 mg of carminic acid was also sent to Cyprotox to assess for genotoxicity.

[5] = pH stability in McIlvaine buffer pH 2.2-7.2, absorption maxima by spectrophotometer; format: physicochemical; remark: listed apart in the source
Method: In comparison to the pH data for Atrorosin-E of Table 1, the absorption spectrum of carminic acid is determined as above. Its absorption maxima are 495 nm, 525 nm, 565 nm. The pH stability data for carminic acid is shown below in Table 2: […]

[6] = Pharmacokinetic profile in rats, IV and PO; format: in vivo; conditions: rat, IV 1 mg/kg; for Cmax: read-out: C0/Cmax
Method: Resulting powder from example 2 was sent to Evotec to asses for the pharmacokinetic profile of atrorosin. 6 rats were used, 3 rats for IV injection of atrorosin and 3 rats for PO. The rats were injected or given through mouth gauge 2 mg/kg, and blood samples were taken at regular intervals.
In comparison to example 10, similar carminic acid was also sent to Evotec to assess the pharmacokinetic profile.

For `O=C(O)C1=C/C(=C/C=[N+]2/c3cc(O)c(OC4OC(CO)[C@@H](O)C(O)C4O)cc3CC2C(=O)[O-])CC(C(=O)O)N1` (stereo in doubt) [betanin, reference compound], the “heat stability (in words)” value ([1]; 60° C. over 24 hours) was “degrades significantly”, the “Absorption at 530 nm” value ([1]; 60° C., 1 H) was 0.26 and the “Absorption at 530 nm” value ([1]; 60° C., 2 H) was 0.2. For the same compound, the “Absorption at 530 nm” value ([1]; 60° C., 3 H) was 0.17, the “Absorption at 530 nm” value ([1]; 60° C., 24 H) was 0.05 and the “Absorption at 530 nm” value ([1]; 60° C., T0: Start) was 0.29. For the same compound, the “heat stability (in words)” value ([1]; 80° C. over 3 hours) was “degrades significantly”, the “Absorption at 530 nm” value ([1]; 80° C., 1 H) was 0.07 and the “Absorption at 530 nm” value ([1]; 80° C., 2 H) was 0.05. The “Absorption at 530 nm” value ([1]; 80° C., 3 H) was 0.03, the “Absorption at 530 nm” value ([1]; 80° C., 15 min) was 0.19 and the “Absorption at 530 nm” value ([1]; 80° C., T0: Start) was 0.28. The “temperature stability (in words)” value [2] was “lack of stability over 40 °C”.
For `Cc1c(C(=O)O)c(O)cc2c1C(=O)c1c(O)c([C@@H]3O[C@H](CO)[C@@H](O)[C@H](O)[C@H]3O)c(O)c(O)c1C2=O` [carminic acid, reference compound], the “CL/CL_F (plasma clearance)” value ([3]; Mean) was 1.3 ± 0.1 mL/min/kg, the Tlast ([3]; individual rats 1-3) was 24 h and the Vdss ([3]; individual rats 1-3) was 0.3 L/kg. For the same compound, the AUC0-t ([3]; individual rats 1-3, 1 mg/kg) was 11431 ng · hr/mL and 12535 ng · hr/mL and 13332 ng · hr/mL and 23216 nM · hr and 25457 nM · hr and 27076 nM · hr, the “Absorption at 565 nm” value ([4]; pH 2.2) was 0.771 and the “Absorption at 565 nm” value ([4]; pH 3.5) was 1.365. For the same compound, the “Absorption at 525 nm” value ([4]; pH 5) was 1.834, the “Absorption at 565 nm” value ([4]; pH 5) was 1.852 and the “Absorption at 495 nm” value ([4]; pH 7.2) was 1.625. The “Fold increase (over baseline)” value (TA 98; TA 98 +S9, 62.5 μg/ml) was 0.42, the “mean # pos. Wells” value (TA 98; TA 98 +S9, 62.5 μg/ml) was 1.00 and the “Fold increase (over baseline)” value (TA 98; TA 98 +S9, 125 μg/ml) was 0.28. For the same compound, the “mean # pos. Wells” value (TA 98; TA 98 +S9, 125 μg/ml) was 0.67, the “Fold increase (over baseline)” value (TA 98; TA 98 +S9, 250 μg/ml) was 0.14 and the “mean # pos. Wells” value (TA 98; TA 98 +S9, 250 μg/ml) was 0.33. The “Fold increase (over baseline)” value (TA 98; TA 98 +S9, 500 μg/ml) was 0.00, the “mean # pos. Wells” value (TA 98; TA 98 +S9, 500 μg/ml) was 0.00 and the “Fold increase (over baseline)” value (TA 98; TA 98 +S9, 1000 μg/ml) was 0.00. The “mean # pos. Wells” value (TA 98; TA 98 +S9, 1000 μg/ml) was 0.00, the “Fold increase (over baseline)” value (TA 98; TA 98 +S9, 2000 μg/ml) was 0.14 and the “mean # pos. Wells” value (TA 98; TA 98 +S9, 2000 μg/ml) was 0.33. For the same compound, the “Fold increase (over baseline)” value (TA 98; TA 98 −S9, 62.5 μg/ml) was 0.25, the “mean # pos. Wells” value (TA 98; TA 98 −S9, 62.5 μg/ml) was 0.33 and the “Fold increase (over baseline)” value (TA 98; TA 98 −S9, 125 μg/ml) was 0.51. The “mean # pos. Wells” value (TA 98; TA 98 −S9, 125 μg/ml) was 0.67, the “Fold increase (over baseline)” value (TA 98; TA 98 −S9, 250 μg/ml) was 0.25 and the “mean # pos. Wells” value (TA 98; TA 98 −S9, 250 μg/ml) was 0.33. The “Fold increase (over baseline)” value (TA 98; TA 98 −S9, 500 μg/ml) was 0.25, the “mean # pos. Wells” value (TA 98; TA 98 −S9, 500 μg/ml) was 0.33 and the “Fold increase (over baseline)” value (TA 98; TA 98 −S9, 1000 μg/ml) was 0.00. For the same compound, the “mean # pos. Wells” value (TA 98; TA 98 −S9, 1000 μg/ml) was 0.00, the “Fold increase (over baseline)” value (TA 98; TA 98 −S9, 2000 μg/ml) was 0.00 and the “mean # pos. Wells” value (TA 98; TA 98 −S9, 2000 μg/ml) was 0.00. For the same compound, the “genotoxic effects (in words)” value (TA 98; mini-Ames study) was “do not exert any genotoxic effects”, the “Absorption at 495 nm” value ([5]; pH 2.2) was 0.859 and the “Absorption at 525 nm” value ([5]; pH 2.2) was 0.88. The “Absorption at 495 nm” value ([5]; pH 3.5) was 1.289, the “Absorption at 525 nm” value ([5]; pH 3.5) was 1.404 and the “Absorption at 495 nm” value ([5]; pH 5) was 1.561. The “Absorption at 525 nm” value ([5]; pH 7.2) was 2.171, the “Absorption at 565 nm” value ([5]; pH 7.2) was 2.23 and the C0/Cmax ([6]; Mean) was 8213 ng/mL. For the same compound, the Clast ([6]; Mean) was 13.4 ng/mL, the MRT ([6]; Mean) was 3.5 h and the Vdss ([6]; Mean) was 0.3 L/kg. For the same compound, the t½ ([6]; Mean) was 3.5 ± 0.2 h, the Cmax ([6]; Mean) was 16.7 µM and the AUCinf ([6]; individual rats 1-3, 1 mg/kg) was 11497 ng · hr/mL and 12597 ng · hr/mL and 13408 ng · hr/mL and 23350 nM · hr and 25583 nM · hr and 27230 nM · hr. For the same compound, the C0/Cmax ([6]; individual rats 1-3, 1 mg/kg) was 7095 ng/mL and 6542 ng/mL and 11003 ng/mL, the CL/CL_F ([6]; individual rats 1-3, 1 mg/kg) was 1.4 mL/min/kg and 1.3 mL/min/kg and 1.2 mL/min/kg and the Clast ([6]; individual rats 1-3, 1 mg/kg) was 12.3 ng/mL and 12.7 ng/mL and 15.3 ng/mL. For the same compound, the MRT ([6]; individual rats 1-3, 1 mg/kg) was 3.2 h and 3.3 h and 3.9 h, the t½ ([6]; individual rats 1-3, 1 mg/kg) was 3.7 h and 3.4 h (2×) and the Cmax ([6]; individual rats 1-3, 1 mg/kg) was 14.4 µM and 13.3 µM and 22.3 µM. For the same compound, the “temperature stability (in words)” value [2] was “good temperature stability”.
